From ChEMBL document CHEMBL1128572, “Synthesis and biology of 1D-3-deoxyphosphatidylinositol: a putative antimetabolite of phosphatidylinositol-3-phosphate and an inhibitor of cancer cell colony formation” (J Med Chem, 1995)

What was measured:
[1] = Inhibition of murine Phosphatidylinositol 3-kinase; parameters: species or system Mus musculus
HT-29 = experiment: Inhibition of colony formation of […] human colon carcinoma cell lines; type: functional, cell-based
[2] = Inhibition of murine Phosphatidylinositol 3-kinase (No effect); parameters: species or system Mus musculus

| IC50 [1] [µM] | IC50 (HT-29) [µM] | IC50 [2] | SMILES |
| --- | --- | --- | --- |
| 30 | 37 | – | CCCCCCCCCCCCCCCC(=O)OCC(COP(=O)(O)OC1C(O)C(O)C(O)C(F)C1O)OC(=O)CCCCCCCCCCCCCCC (centres undefined) |
| – | 35 | Not Active | CCCCCCCCCCCCCCCC(=O)OCC(COP(=O)(O)O[C@H]1[C@@H](O)[C@@H](O)[C@H](O)C[C@H]1O)OC(=O)CCCCCCCCCCCCCCC (some centres undefined) |
